Entries after “also recorded” stand apart in the source; their conditions may differ. No end group written: not given here. *: point of attachment. acyloxymethyl ketone = C-terminal acyloxymethyl ketone; Biotin = O=C1N[C@H]2[C@H](CS[C@H]2CCCCC(=O)*)N1
How the values were obtained:
human separase [1] = assay: SCC1 in vitro cleavage assay; assay type: biochemical
Description: 30 microliter beads were incubated with 40 μg bacterially expressed wildtype securin, destruction box deleted form of securin (Gmachl et al., 2000) or BSA diluted in XB+1 mM DTT for 40 min at RT. Subsequently the beads were washed with XB+1 mM DTT and with TBS+0.5 M NaCl+1 mM DTT+0.5% TWEEN20, followed by one wash with XB+1 mM DTT. To control the rebinding of securin an aliquot of 5 μl was taken per assay and subsequently analysed by immunoblotting with antibodies against separase and securin.
The beads were used for the SCC1 in vitro cleavage assay: 20 μl beads were mixed with 30 μl of the following SCC1 in vitro translation mix (SCC1 myc IVT+1 μl PLK-GST+0.3 μl […], 0.3 μl 100 mM ATP, 0.12 μl 250 mM EGTA, 13.78 μl XB+1 mM DTT) and incubated at 22° C. and 1200 rpm. 5 μl were taken per time point, the reaction was stopped by addition of SDS loading buffer. Samples were analyzed by immunoblotting with mouse monoclonal antibodies against myc (9E10).
(§1) B. Separase immunoprecipitates were incubated with 100 μM Biotin-SVEQGR-amk or with DMSO prior mitotic activation. Incubation for 10 minutes, 22° C. and 1000 rpm. After washing twice in XB+1 mM DTT the activation was performed in mitotic Xenopus egg extracts.
(§2) Interphase Xenopus egg extracts were driven into mitosis in the presence of 1 mM Biotin-SVEQGR-amk or DMSO. Those mitotic Xenopus egg extracts were used to activate a batch of separase immunoprecipitates.

human separase [2] = assay: Covalent labelling of separase forms by biotin peptide (avidin blot); assay type: binding
Description: as §1, §2
Biotin labeled peptides were detected via immunoblotting according to Faleiro et al., 1997.
C. Mitotically activated separase immunoprecipitates were preincubated with either 8 μg recombinant securin or with 8 μg of a C-terminal truncated version of cyclinB in 100 μl XB+1 mM DTT for 30 min at 22° C. and 1250 rpm. Subsequently the beads were washed twice with TBS+0.5 M NaCl+1 mM DTT+0.5% Tween 20 and twice with XB+1 mM DTT. Thereafter beads were incubated with 100 μl of 100 μM Bio-DREIMR-amk in XB+[…]. After 10 min incubation at 22° C. and 1250 rpm beads were again washed and analyzed by immunoblotting.
FIG. 4B: Separase IPs (see A) were either preincubated with Biotin-SVEQGR-amk (preinc. with inh. peptide) or with DMSO (preinc. with DMSO), subsequently washed and aliquots were taken. Thereafter they were incubated in mitotic Xenopus egg extracts and washed again. Samples were taken for analysis (1i, 1c). Separase IPs were activated either in mitotic Xenopus egg extracts which were driven into mitosis in the presence of Biotin-SVEQGR-amk or DMSO, subsequently washed and aliquots were taken for analysis (2i, 2c). Already mitotically activated separase IPs (see A) were incubated with Biotin-SVEQGR-amk or DMSO, thereafter washed and aliquots were taken for analysis (3i, 3c). All samples were analysed by immunoblotting with avidin.
FIG. 4D: Activated separase immunoprecipitates bound by antibodies against the C-terminus of separase to beads were first incubated with recombinant securin or, for control, with recombinant truncated cyclinB. […] Thereafter, the immunoprecipitates were again washed and analyzed by immunoblotting.

human separase [3] = target: human separase (Homo sapiens, UniProt Q14674); conditions: same concentration at which SCC1 cleavage was inhibited
Description: A. Mitotically activated separase immunoprecipitates were preincubated with yeast peptides (Uhlmann et al., 2000) before they were used in the SCC1-cleavage assay. Biotin-SVEQGR-amk or Biotin-SVEQGR-cmk were used at different concentration (0.1, 1, 10, 100, 1000 μM in XB+0.5 mM DTT). Separase immunoprecipitates were incubated for 10 minutes, 22° C. and 1200 rpm. The SCC1 in vitro cleavage assay was performed after washing once with XB+0.5 mM DTT (see above). Human peptides, Biotin-DREIMR-amk or DREIMR-amk, were diluted and used as above described for the yeast peptides.

[4] = activation in mitotic Xenopus extracts in presence of peptide (lane 2i)
[5] = substance added to mitotically activated separase immunoprecipitates before SCC1-myc reaction mix

Chain of human separase (Q14674 1536-2120 limits assumed): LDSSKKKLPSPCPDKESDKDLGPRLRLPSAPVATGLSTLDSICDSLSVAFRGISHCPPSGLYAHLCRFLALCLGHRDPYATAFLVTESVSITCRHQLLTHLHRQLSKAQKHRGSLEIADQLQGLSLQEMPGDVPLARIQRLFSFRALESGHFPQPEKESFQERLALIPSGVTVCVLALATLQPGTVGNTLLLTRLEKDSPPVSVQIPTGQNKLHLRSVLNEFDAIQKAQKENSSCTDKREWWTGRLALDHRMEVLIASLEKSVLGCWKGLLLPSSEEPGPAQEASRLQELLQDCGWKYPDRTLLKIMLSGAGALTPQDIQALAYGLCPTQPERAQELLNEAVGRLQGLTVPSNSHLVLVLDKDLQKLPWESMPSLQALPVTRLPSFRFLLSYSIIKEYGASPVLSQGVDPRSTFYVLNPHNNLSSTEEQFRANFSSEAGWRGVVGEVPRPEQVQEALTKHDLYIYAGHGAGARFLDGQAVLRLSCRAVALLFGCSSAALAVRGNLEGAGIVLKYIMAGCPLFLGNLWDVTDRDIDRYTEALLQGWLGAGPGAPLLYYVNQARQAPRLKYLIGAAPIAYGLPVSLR
Chain of human separase (Homo sapiens, UniProt Q14674) (Q14674 whole entry): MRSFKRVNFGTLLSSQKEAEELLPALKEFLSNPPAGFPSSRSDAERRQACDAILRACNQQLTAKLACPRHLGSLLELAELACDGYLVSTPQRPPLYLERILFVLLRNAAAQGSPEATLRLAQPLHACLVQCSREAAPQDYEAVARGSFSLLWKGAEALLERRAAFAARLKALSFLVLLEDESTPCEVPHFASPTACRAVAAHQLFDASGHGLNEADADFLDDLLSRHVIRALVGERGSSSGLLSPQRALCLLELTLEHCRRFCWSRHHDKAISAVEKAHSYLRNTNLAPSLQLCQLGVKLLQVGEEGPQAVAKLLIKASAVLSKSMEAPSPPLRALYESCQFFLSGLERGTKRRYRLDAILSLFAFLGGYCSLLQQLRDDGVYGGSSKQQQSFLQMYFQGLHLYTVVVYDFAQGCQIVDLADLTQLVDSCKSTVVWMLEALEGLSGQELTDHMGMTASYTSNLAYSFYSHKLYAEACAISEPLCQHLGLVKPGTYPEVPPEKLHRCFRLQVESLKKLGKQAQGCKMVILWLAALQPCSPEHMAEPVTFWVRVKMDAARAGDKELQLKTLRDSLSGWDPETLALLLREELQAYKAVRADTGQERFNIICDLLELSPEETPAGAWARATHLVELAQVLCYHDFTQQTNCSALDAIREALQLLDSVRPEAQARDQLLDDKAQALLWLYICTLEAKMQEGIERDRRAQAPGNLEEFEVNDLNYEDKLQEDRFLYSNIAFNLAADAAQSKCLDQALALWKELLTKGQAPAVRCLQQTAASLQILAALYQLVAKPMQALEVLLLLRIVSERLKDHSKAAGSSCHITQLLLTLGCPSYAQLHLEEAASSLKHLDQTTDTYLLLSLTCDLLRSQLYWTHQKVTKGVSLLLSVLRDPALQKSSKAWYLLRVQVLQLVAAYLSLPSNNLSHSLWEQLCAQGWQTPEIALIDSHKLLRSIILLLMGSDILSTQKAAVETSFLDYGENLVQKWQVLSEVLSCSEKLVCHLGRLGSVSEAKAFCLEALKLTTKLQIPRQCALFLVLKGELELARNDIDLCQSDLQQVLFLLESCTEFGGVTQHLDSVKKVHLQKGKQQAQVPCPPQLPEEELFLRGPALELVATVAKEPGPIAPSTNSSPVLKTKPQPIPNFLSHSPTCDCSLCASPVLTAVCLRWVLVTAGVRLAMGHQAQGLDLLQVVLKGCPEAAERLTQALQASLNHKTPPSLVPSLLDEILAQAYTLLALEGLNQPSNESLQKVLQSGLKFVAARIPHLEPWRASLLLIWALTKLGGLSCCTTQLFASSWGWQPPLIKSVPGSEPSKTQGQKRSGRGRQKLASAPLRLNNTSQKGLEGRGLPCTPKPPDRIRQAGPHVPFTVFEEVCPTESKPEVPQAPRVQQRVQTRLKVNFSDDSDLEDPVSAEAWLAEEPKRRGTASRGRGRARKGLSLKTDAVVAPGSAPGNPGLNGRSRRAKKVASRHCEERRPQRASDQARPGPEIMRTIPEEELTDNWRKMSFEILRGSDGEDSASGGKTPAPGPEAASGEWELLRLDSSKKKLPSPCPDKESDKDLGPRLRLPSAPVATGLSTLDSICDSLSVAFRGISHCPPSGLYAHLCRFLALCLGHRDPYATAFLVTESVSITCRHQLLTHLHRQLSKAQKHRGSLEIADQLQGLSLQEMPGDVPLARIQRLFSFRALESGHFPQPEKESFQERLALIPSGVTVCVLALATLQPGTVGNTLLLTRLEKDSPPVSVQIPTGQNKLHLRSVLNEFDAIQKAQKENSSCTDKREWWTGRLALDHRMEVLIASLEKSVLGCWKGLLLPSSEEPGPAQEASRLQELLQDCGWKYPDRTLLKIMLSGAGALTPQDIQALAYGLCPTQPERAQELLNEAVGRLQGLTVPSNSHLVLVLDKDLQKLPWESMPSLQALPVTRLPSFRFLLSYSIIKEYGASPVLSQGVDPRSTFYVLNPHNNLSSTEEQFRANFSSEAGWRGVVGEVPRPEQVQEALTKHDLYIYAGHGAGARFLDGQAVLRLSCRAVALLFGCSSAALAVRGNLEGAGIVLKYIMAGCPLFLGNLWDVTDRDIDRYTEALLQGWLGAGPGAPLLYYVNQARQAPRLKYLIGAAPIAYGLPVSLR

Row | Substance | relative effectiveness of the two yeast peptide inhibitors (human separase [1]) | SCC1 cleavage by separase (human separase [1]; [4]) | SCC1 cleavage by separase (human separase [1]; peptide added before activation and washed away before mitotic Xenopus extract (lane 1i)) | SCC1 cleavage by separase (human separase [1]; [5]) | separase forms labeled by the peptide (human separase [2]; [4]) | separase forms bound by the peptide (human separase [2]; peptide added after activation in mitotic Xenopus extracts (lane 3i)) | separase forms labeled by the peptide (human separase [2]; peptide added before activation in mitotic Xenopus extracts (lane 1i)) | formation of the p55 cleavage product of human separase (human separase [3])
1 | Bio-SVEQGR-amk: synthetic peptide with budding yeast SCC1 cleavage site SVEQGR, C-terminal acyloxymethyl ketone, N-terminal biotin (Biotin-SVEQGR-{acyloxymethyl ketone}) | the more effective one of the two yeast peptide inhibitors | separase was unable to cleave SCC1 | separase could be activated normally to cleave SCC1 | inhibited SCC1 cleavage by separase; also recorded: able to block the ability of separase to cleave SCC1 | both the cleaved forms of separase and full-length separase were covalently labeled | bound exclusively to the cleaved forms of human separase | only the small amount of p60 that is already present in these immunoprecipitates was labeled | largely inhibited
2 | DREIMR-amk: peptide inhibitor based on the cleavage recognition site of human SCC1, DREIMR, acyloxymethyl ketone (DREIMR-{acyloxymethyl ketone}) |  |  |  | able to inhibit separase at a similar concentration as the peptide inhibitors derived from yeast |  |  |  | 
